One may read the GI50 as the concentration at which growth is held to half of that of the control.

This note sets out measurements from ChEMBL document CHEMBL1201862, “PubChem BioAssay data set” (2004).

Common to all, as to assay: DTP human tumour cell line panel, 48 h
For assay [1], the system named is SF-539.
In assay [2] the test system is M19-MEL.
The subject of assay [3] is SR.
In assay [4] the test system is OVCAR-3.
Assay [5] relates to SN12C.
Assay [6] relates to LOX IMVI.
Assay [7] has as its system EKVX.
Assay [8] has as its system TK-10.
For assay [9], the system named is SNB-19.
In assay [10] the test system is U-251.
The test system of assay [11] is KM12.
Assay [12] concerns NCI-H460.
Assay [13] concerns NCI-H23.
Assay [14] relates to SF-295.
For assay [15], the system named is UACC-257.

SMILES strings stand for the structures.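 The compound was tested at five concentrations on cells cultured in 96-well plates, with a 48-hour exposure period. At the GI50, growth is halved.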 The source made the active and inactive calls. No stated cut-off is given here; in the data, active = GI50 up to about 1.1 µM and inactive = higher.

As to `CC(Oc1ccc2c(-c3ccccc3)cc(=O)oc2c1)C(=O)O` (stereo unspecified), the GI50 in [1], in assay [2], in [3], in assay [4], in assay [5] and in assay [6] was > 100 µM (inactive) in each case. In addition, the GI50 in [7], in [8], in assay [9], in assay [10], in assay [11] and in [12] was > 100 µM (inactive) in each case. Also, the GI50 in assay [13], in assay [14] and in assay [15] was > 100 µM (inactive) each time.

On to `Cc1nc(N)sc1C(=O)/C=C\c1ccc2c(c1)OCO2`, for which the GI50 in assay [1], in assay [2], in assay [3], in assay [4], in assay [5] and in [6] was > 100 µM (inactive) each time. Also, the GI50 in assay [7], in assay [8], in [9], in assay [10], in assay [11] and in assay [12] was > 100 µM (inactive) each time. The GI50 in assay [13], in assay [14] and in assay [15] was > 100 µM (inactive) in each case.

With `COc1cc2c(cc1O)[C@@]1(Cc3ccc(OC)c(OC)c3)CCC(=O)N1CC2`, the GI50 in assay [1] was > 100 µM (inactive); in assay [2], > 100 µM (inactive); in assay [3] it was 61.8 µM (inactive); in assay [4], > 100 µM (inactive); in assay [5], > 100 µM (inactive); in assay [6] it was > 100 µM (inactive). The GI50 in assay [7], in assay [8], in assay [9], in [11], in [12] and in [13] was > 100 µM (inactive) in each case. For the same compound, the GI50 in assay [14] and in assay [15] was > 100 µM (inactive) each time.

For the compound `Cc1cc(C)c(C2[C@H]3C(=O)N(c4ccc(Cc5ccc(N6C(=O)[C@@H]7ON(c8ccccc8)C(c8c(C)cc(C)cc8C)[C@@H]7C6=O)cc5)cc4)C(=O)[C@H]3ON2c2ccccc2)c(C)c1` (stereo partly specified), the GI50 in [1], in assay [2], in assay [3], in [4], in assay [5] and in assay [6] was > 100 µM (inactive) throughout. Besides, the GI50 in assay [7], in assay [8], in assay [9], in assay [10], in assay [11] and in assay [12] was > 100 µM (inactive) in each case. For the same compound, the GI50 in assay [13], in assay [14] and in [15] was > 100 µM (inactive) in each case.

Turning to `COc1cccc2c1C(=O)c1c(O)c3c(c(O)c1C2=O)C[C@@](O)(C(C)=O)C[C@@H]3OC1CC([N+]([O-])(Cc2ccccc2)Cc2ccccc2)C(O)C(C)O1` (stereo partly specified), the GI50 in assay [1] is 1.26 µM (inactive); in [2], 1.43 µM (inactive); in assay [3] it was 0.179 µM (active); in assay [4], 1.73 µM (inactive); in assay [5], 1.06 µM (active); in assay [6], 1.02 µM (active). Further, the GI50 is 1.8 µM (inactive) in assay [7]; 1.6 µM (inactive) in [8]; 2.13 µM (inactive) in assay [9]; 1.24 µM (inactive) in assay [10]; 1.48 µM (inactive) in assay [11]; 0.71 µM (active) in [12]. Moreover, the GI50 in assay [13] is 1.3 µM (inactive); in assay [14] it was 1.19 µM (inactive); in [15], 1.71 µM (inactive).

`NC(CCCNc1cccc(O)c1)C(=O)O` (stereo unspecified): the GI50 in [2], in assay [3], in [4], in assay [5], in [6] and in assay [7] was > 100 µM (inactive) in each case. Besides, the GI50 in assay [8], in assay [9], in [10], in [12], in [14] and in assay [15] was > 100 µM (inactive) each time.

`CCN(CC)CCC1CC/C(=C\c2ccc(OC)cc2)C1=O` (stereo unspecified): the GI50 is > 100 µM (inactive) in assay [1]; 54.8 µM (inactive) in [2]; 55.8 µM (inactive) in assay [3]; > 100 µM (inactive) in [4]; > 100 µM (inactive) in [5]; > 100 µM (inactive) in assay [6]. In addition, the GI50 in assay [7], in assay [8], in assay [9], in assay [10], in assay [11] and in assay [14] was > 100 µM (inactive) each time. In assay [15], the GI50 was 32 µM (inactive).

Take `Cc1ccc(/C=C/C(=O)CCN(C)C)cc1`: the GI50 is 16.9 µM (inactive) in assay [1]; 19.7 µM (inactive) in assay [2]; 21.4 µM (inactive) in assay [3]; 20.3 µM (inactive) in [4]; 16.9 µM (inactive) in [5]; 16.3 µM (inactive) in [6]. In addition, the GI50 in assay [8] is 16.5 µM (inactive); in [9], 26.3 µM (inactive); in [10], 16.3 µM (inactive); in [11] it was 4.62 µM (inactive); in assay [12], 21.8 µM (inactive); in assay [13], 27.9 µM (inactive). In addition, the GI50 was 33 µM (inactive) in assay [14] and 14.7 µM (inactive) in assay [15].

Regarding `O=C1C(=Cc2ccc([N+](=O)[O-])o2)C(=O)N(CCc2ccccc2)S(=O)(=O)N1CCc1ccccc1`, the GI50 in [1] is 38.1 µM (inactive); in [2] it was 17.7 µM (inactive); in assay [3], 14.3 µM (inactive); in assay [4], 17.4 µM (inactive); in assay [5], 50.4 µM (inactive); in assay [6], 18.7 µM (inactive). Further, the GI50 in [7] is > 100 µM (inactive); in assay [8], 42.2 µM (inactive); in [9], > 100 µM (inactive); in assay [10] it was > 100 µM (inactive); in [11] it was > 100 µM (inactive); in [12] it was > 100 µM (inactive). Also, the figures for the GI50 in assay [13], in assay [14] and in assay [15] were 16.8 µM (inactive), > 100 µM (inactive) and 63 µM (inactive), respectively.

In the case of `CC(C)(c1ccccc1)c1ccc(OC#N)cc1`, the GI50 in assay [1] is 38.1 µM (inactive); in assay [2] it was > 60.1 µM (inactive); in [3], 19.2 µM (inactive); in [4], > 100 µM (inactive); in [5], 60.5 µM (inactive); in [6], > 41 µM (inactive). For the same compound, the GI50 in assay [7] is > 100 µM (inactive); in assay [8], > 100 µM (inactive); in [9], > 78 µM (inactive); in [10] it was 47.2 µM (inactive); in assay [11], > 75 µM (inactive); in assay [12], 38.5 µM (inactive). For the same compound, the GI50 in assay [13] was 68.9 µM (inactive); in assay [14], 60.8 µM (inactive); in [15], > 100 µM (inactive).

Regarding `CCOC(=O)Oc1c(OC)cc(C(=O)NC2CCc3cc(OC)c(OC)c(OC)c3-c3ccc(SC)c(=O)cc32)cc1OC` (stereo unspecified), the GI50 was 0.0245 µM (active) in assay [1]; 0.047 µM (active) in assay [2]; < 0.007 µM (active) in assay [3]; 0.0322 µM (active) in assay [4]; 0.0542 µM (active) in assay [5]; 0.0466 µM (active) in [6]. Besides, the concentration for 50% growth inhibition (GI50) was 0.16 µM (active) in assay [7]; 0.474 µM (active) in [8]; 0.324 µM (active) in [9]; 0.0346 µM (active) in assay [10]; 0.0378 µM (active) in assay [11]; 0.164 µM (active) in [12]. The GI50 in [13] was 0.0439 µM (active); in assay [14] it was 0.145 µM (active); in assay [15], 0.0743 µM (active).

Consider `O=C1CCCN(c2ccccc2)N1`, for which the GI50 in assay [1], in assay [2], in assay [3], in [4], in assay [5] and in assay [6] was > 100 µM (inactive) each time. The GI50 in assay [7], in assay [9], in assay [10], in [11], in assay [12] and in assay [14] was > 100 µM (inactive) throughout. Also, in assay [15], the GI50 is > 100 µM (inactive).

Turning to `COc1cc2c[n+](C)c3c4cc(OC)c(OC)cc4c(OCCCCCCCCOc4cc5c6cc(OC)c(OC)cc6c[n+](C)c5c5cc(OC)c(OC)cc45)cc3c2cc1OC`, the GI50 in assay [1] is 51.4 µM (inactive); in [2] it was 53.1 µM (inactive); in assay [3], 4.28 µM (inactive); in [4] it was > 100 µM (inactive); in [5], > 100 µM (inactive); in assay [6], > 100 µM (inactive). Also, the GI50 in assay [7] was > 100 µM (inactive); in [8], > 100 µM (inactive); in [9], 17.4 µM (inactive); in assay [10], 12.9 µM (inactive); in assay [11], 72.8 µM (inactive); in assay [12] it was > 100 µM (inactive). Further, the GI50 in assay [13], in [14] and in assay [15] was > 100 µM (inactive) each time.
